Target: T1, AlaRS N71Y binding to GST-Nrp1 b1 (Homo sapiens, UniProt P49588, N71Y)
T1 construct: made in house; host or cells: E. coli BL21 (DE3), pET-21a for AlaRS
T1 sequence (P49588 1-968 N71Y): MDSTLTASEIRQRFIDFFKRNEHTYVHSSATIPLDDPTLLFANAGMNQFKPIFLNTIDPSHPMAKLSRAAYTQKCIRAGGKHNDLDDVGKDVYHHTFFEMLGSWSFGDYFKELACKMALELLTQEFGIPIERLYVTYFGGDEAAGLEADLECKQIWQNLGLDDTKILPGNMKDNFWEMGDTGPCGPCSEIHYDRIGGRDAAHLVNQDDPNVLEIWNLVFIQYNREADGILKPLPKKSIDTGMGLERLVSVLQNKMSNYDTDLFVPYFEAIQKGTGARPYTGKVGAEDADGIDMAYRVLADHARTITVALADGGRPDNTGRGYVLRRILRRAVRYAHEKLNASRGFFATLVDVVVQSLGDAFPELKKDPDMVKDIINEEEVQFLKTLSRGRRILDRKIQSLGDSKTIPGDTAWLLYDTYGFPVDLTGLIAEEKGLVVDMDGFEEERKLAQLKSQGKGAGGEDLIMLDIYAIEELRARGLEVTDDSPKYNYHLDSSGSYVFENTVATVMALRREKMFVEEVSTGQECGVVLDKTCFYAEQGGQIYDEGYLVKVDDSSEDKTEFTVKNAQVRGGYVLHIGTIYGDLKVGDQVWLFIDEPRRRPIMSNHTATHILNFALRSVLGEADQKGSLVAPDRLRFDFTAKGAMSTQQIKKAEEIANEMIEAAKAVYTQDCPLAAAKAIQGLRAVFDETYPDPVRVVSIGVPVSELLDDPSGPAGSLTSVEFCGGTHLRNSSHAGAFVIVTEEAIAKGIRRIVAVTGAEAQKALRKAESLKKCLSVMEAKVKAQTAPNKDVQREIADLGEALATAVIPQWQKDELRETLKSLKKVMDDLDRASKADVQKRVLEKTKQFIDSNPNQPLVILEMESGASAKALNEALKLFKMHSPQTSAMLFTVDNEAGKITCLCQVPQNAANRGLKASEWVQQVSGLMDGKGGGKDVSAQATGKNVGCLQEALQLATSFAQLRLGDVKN
Test: GST pull down assay
Conditions: 20 µM Tanshinone I, ImageJ, average of three repeats
Experimental: To further investigate whether Tanshinone I-induced conformational changes in AlaRS CMT mutants affect their interaction with Nrp1, Co-IP experiments were performed in cells treated with Tanshinone I. By comparing Co-IP results obtained before and after treatment, we assessed the influence of the drug on the binding strength and mode between the AlaRS CMT mutants and Nrp1. […] To confirm the direct effect of Tanshinone I on the interaction between AlaRS CMT mutants and Nrp1, pull-down experiments were performed. […] Given that the interaction between AlaRS mutants and Nrp1 is associated with disease progression in CMT, the ability of Tanshinone I to disrupt this binding highlights its potential to intervene in the pathogenic mechanisms of these diseases.
Figure 7 The impact of Tanshinone I on the interaction between AlaRS mutants and Nrp1. (A) Co-IP assays were conducted to assess the binding between HA-AlaRS mutants and Nrp1, both with and without treatment with 20 µM Tanshinone I for 24 h. […] (C) Pull down assay was performed to detect the binding between AlaRS mutants and GST-Nrp1 b1 with or without 20 µM Tanshinone I. (D) Relative quantification statistics of the AlaRS mutants pulled down from the GST pull down experiments after Tanshinone I treatment were performed using ImageJ. (E) The cell viability of 293T and NSC34 cells treated with different concentrations of Tanshinone I was assessed using the CCK-8 assay over a 24 h period. TEXT PRINTED IN THE PICTURE: (B) Tanshinone I: Mean density band (N71Y): 0.60; Mean density band (G102R): 0.53; Mean density band (R326W): 0.50; Mean density band (R329H): 0.50; Mean density band (E337K): 0.62 | (D) Tanshinone I: Mean density band (N71Y): 0.82; Mean density band (G102R): 0.76; Mean density band (R326W): 0.84; Mean density band (R329H): 0.84; Mean density band (E337K): 0.90
To detect the direct interactions between the mutant proteins and Nrp1 in vitro, we performed a Glutathione S-transferase (GST) pull-down assay. AlaRS mutants fused with 6 × His were purified with Ni-NTA beads, followed by chromatography on a HiTrap Q HP column. Nrp1 b1 fragments fused with GST were purified with Glutathione Beads (#SA008100, Smart-Lifesciences, Changzhou, China). For GST pull-down assays, 1000 μg of each GST-fused Nrp1 b1 fragment was mixed with 200 μg of 6 × His-tagged fusion protein in binding buffer (50 mM Tris-HCl pH 7.5, 20 mM NaCl, 5% glycerol, 5 mM DTT with 0.1% BSA) at 4 °C overnight. The mixture was next incubated with 30 μL glutathione beads at 4 °C with constant rotation for 2–4 h. Subsequently, the bead/protein complex was washed three times, and eluted with 30 μL 2 × SDS sample buffer. The samples were then subjected to SDS-PAGE analysis. The experiment was repeated three times.

## Cc1coc2c1C(=O)C(=O)c1c-2ccc2c(C)cccc12 [Tanshinone I]
  Mean density band (N71Y), relative quantification of AlaRS mutant pulled down: 0.82

— article PMC11509018, “Evaluation of the Role of Tanshinone I in an In Vitro System of Charcot-Marie-Tooth Disease Type 2N” (International Journal of Molecular Sciences, 2024)
